Test results reported in US8188098B2, “GPR119 receptor agonists” (Hoffmann-La Roche Inc., priority 2008, dated 2012).

Molecular target: T1, GPR119 receptor (Mesocricetus auratus, UniProt A0A1U8CD06)
T1 construct: which endogenously express the GPR119 receptor; host or cells: HIT-T15 hamster pancreatic islet cells
T1 sequence (A0A1U8CD06 1-334): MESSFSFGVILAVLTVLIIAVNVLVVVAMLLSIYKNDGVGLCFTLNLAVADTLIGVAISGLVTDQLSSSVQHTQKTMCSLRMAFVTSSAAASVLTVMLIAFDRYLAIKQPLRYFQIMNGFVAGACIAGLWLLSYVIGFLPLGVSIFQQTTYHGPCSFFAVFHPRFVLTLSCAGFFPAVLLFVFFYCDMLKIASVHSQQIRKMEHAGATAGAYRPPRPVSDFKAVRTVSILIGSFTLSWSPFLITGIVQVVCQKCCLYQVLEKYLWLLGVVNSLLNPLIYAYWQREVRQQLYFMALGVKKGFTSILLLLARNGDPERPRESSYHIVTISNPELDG
Test: cAMP assay in HIT-T15 hamster pancreatic islet cells (functional agonist activity)
Type: cell-based
Settings: HIT-T15 cells endogenously expressing GPR119; 30 min at 25° C.; intracellular cAMP
Outline: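 HIT-T15 cells (endogenous GPR119), 9000/well, exposed to agonist 30 min at 25° C with 0.5 mM IBMX and 0.5 mg/ml BSA. Lysate cAMP measured by chemiluminescent competitive immunoassay; EC50 from curve fit.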

Which EC50 does the source give for `CC(C)(C)OC(=O)N1CCCC(n2ncc3c(Oc4ccccc4C#N)ncnc32)C1` (stereo not shown) [Example 90, 3-[4-(2-Cyano-phenoxy)-pyrazolo[3,4-d]pyrimidin-1-yl]-piperidine-1-carboxylic acid tert-butyl ester] here?
Its EC50 is 0.12 µM.

Which EC50 does the source give for `CC(C)(C)OC(=O)N1CCC(n2ncc3c(Oc4cccnc4)ncnc32)CC1` [Example 91, 4-[4-(Pyridin-3-yloxy)-pyrazolo[3,4-d]pyrimidin-1-yl]-piperidine-1-carboxylic acid tert-butyl ester] here?
Its EC50 is 1.2 µM.

For `Cc1ncccc1Oc1ncnc2c1cnn2C1CCN(C(=O)OC(C)(C)C)CC1` [Example 92, 4-[4-(2-Methyl-pyridin-3-yloxy)-pyrazolo[3,4-d]pyrimidin-1-yl]-piperidine-1-carboxylic acid tert-butyl ester], which EC50 is on record?
Its EC50 is 0.17 µM.

How did the EC50 turn out when `COc1ccc(Oc2ncnc3c2cnn3C2CCN(C(=O)OC(C)(C)C)CC2)c(OC)n1` [Example 95, 4-[4-(2,6-Dimethoxy-pyridin-3-yloxy)-pyrazolo[3,4-d]pyrimidin-1-yl]-piperidine-1-carboxylic acid tert-butyl ester] was run?
The EC50 was 0.89 µM.

For `COc1ccc(Oc2ncnc3c2cnn3C2CCN(C(=O)OC(C)(C)C)CC2)cn1` [Example 96, 4-[4-(6-Methoxy-pyridin-3-yloxy)-pyrazolo[3,4-d]pyrimidin-1-yl]-piperidine-1-carboxylic acid tert-butyl ester], which EC50 is on record?
Its EC50 is 1.5 µM.

`Cc1nc(Cl)ccc1Oc1ncnc2c1cnn2C1CCN(C(=O)OC(C)(C)C)CC1` [Example 97, 4-[4-(6-Chloro-2-methyl-pyridin-3-yloxy)-pyrazolo[3,4-d]pyrimidin-1-yl]-piperidine-1-carboxylic acid tert-butyl ester] was tested. Which EC50 did it give?
Its EC50 is 0.53 µM.

`Cc1nc(S(C)(=O)=O)ccc1Oc1ncnc2c1cnn2C1CCN(C(=O)OC(C)(C)C)CC1` [Example 98, 4-[4-(6-Methanesulfonyl-2-methyl-pyridin-3-yloxy)-pyrazolo[3,4-d]pyrimidin-1-yl]-piperidine-1-carboxylic acid tert-butyl ester] was tested. Which EC50 did it give?
The EC50 was 0.096 µM.

How did the EC50 turn out when `CC(C)(C)OC(=O)N1CCC(n2ncc3c(Oc4cccnc4C#N)ncnc32)CC1` [Example 99, 4-[4-(2-Cyano-pyridin-3-yloxy)-pyrazolo[3,4-d]pyrimidin-1-yl]-piperidine-1-carboxylic acid tert-butyl ester] was run?
The EC50 was 0.2 µM.

Which EC50 does the source give for `CC(C)(C)OC(=O)N1CCC(n2ncc3c(Oc4cncc(Cl)c4)ncnc32)CC1` [Example 100, 4-[4-(5-Chloro-pyridin-3-yloxy)-pyrazolo[3,4-d]pyrimidin-1-yl]-piperidine-1-carboxylic acid tert-butyl ester] here?
Its EC50 is 1.8 µM.

With `Cc1nc(-n2cncn2)ccc1Oc1ncnc2c1cnn2C1CCN(C(=O)OC(C)(C)C)CC1` [Example 101, 4-[4-(2-Methyl-6-[1,2,4]triazol-1-yl-pyridin-3-yloxy)-pyrazolo[3,4-d]pyrimidin-1-yl]-piperidine-1-carboxylic acid tert-butyl ester] as the compound, how does the EC50 read?
Its EC50 is 0.36 µM.

How did the EC50 turn out when `Cn1nc(Oc2ncnc3c2cnn3C2CCN(C(=O)OC(C)(C)C)CC2)ccc1=O` [Example 102, 4-[4-(1-Methyl-6-oxo-1,6-dihydro-pyridazin-3-yloxy)-pyrazolo[3,4-d]pyrimidin-1-yl]-piperidine-1-carboxylic acid tert-butyl ester] was run?
The EC50 was 0.47 µM.

How did the EC50 turn out when `CCc1cc(Oc2ncnc3c2cnn3C2CCN(C(=O)OC(C)(C)C)CC2)nc(C)n1` [Example 103, 4-[4-(6-Ethyl-2-methyl-pyrimidin-4-yloxy)-pyrazolo[3,4-d]pyrimidin-1-yl]-piperidine-1-carboxylic acid tert-butyl ester] was run?
The EC50 was 3.4 µM.

For `CCCCOC(=O)N1CCC(n2ncc3c(Oc4cccnc4C)ncnc32)CC1` [Example 104, 4-[4-(2-Methyl-pyridin-3-yloxy)-pyrazolo[3,4-d]pyrimidin-1-yl]-piperidine-1-carboxylic acid butyl ester], which EC50 is on record?
The EC50 was 0.85 µM.

With `CC[C@@H](C)OC(=O)N1CCC(n2ncc3c(Oc4ccc(S(C)(=O)=O)cc4)ncnc32)CC1` [Example 105, 4-[4-(4-Methanesulfonyl-phenoxy)-pyrazolo[3,4-d]pyrimidin-1-yl]-piperidine-1-carboxylic acid (R)-sec-butyl ester] as the compound, how does the EC50 read?
The EC50 was 0.15 µM.

How did the EC50 turn out when `CC(C)COC(=O)N1CCC(n2ncc3c(Oc4ccc(S(C)(=O)=O)cc4)ncnc32)CC1` [Example 106, 4-[4-(4-Methanesulfonyl-phenoxy)-pyrazolo[3,4-d]pyrimidin-1-yl]-piperidine-1-carboxylic acid isobutyl ester] was run?
Its EC50 is 0.11 µM.

For `Cc1ncccc1Oc1ncnc2c1cnn2C1CCN(C(=O)OCC(C)C)CC1` [Example 107, 4-[4-(2-Methyl-pyridin-3-yloxy)-pyrazolo[3,4-d]pyrimidin-1-yl]-piperidine-1-carboxylic acid isobutyl ester], which EC50 is on record?
Its EC50 is 0.19 µM.

`CC(C)(C)COC(=O)N1CCC(n2ncc3c(Oc4ccc(S(C)(=O)=O)cc4)ncnc32)CC1` [Example 108, 4-[4-(4-Methanesulfonyl-phenoxy)-pyrazolo[3,4-d]pyrimidin-1-yl]-piperidine-1-carboxylic acid 2,2-dimethyl-propyl ester] was tested. Which EC50 did it give?
The EC50 was 0.1 µM.

With `CS(=O)(=O)c1ccc(Oc2ncnc3c2cnn3C2CCN(C(=O)OC(CF)CF)CC2)cc1` [Example 109, 4-[4-(4-Methanesulfonyl-phenoxy)-pyrazolo[3,4-d]pyrimidin-1-yl]-piperidine-1-carboxylic acid 2-fluoro-1-fluoromethyl-ethyl ester] as the compound, how does the EC50 read?
Its EC50 is 0.68 µM.

How did the EC50 turn out when `CC(OC(=O)N1CCC(n2ncc3c(Oc4ccc(S(C)(=O)=O)cc4)ncnc32)CC1)C(F)(F)F` (stereo not shown) [Example 110, 4-[4-(4-Methanesulfonyl-phenoxy)-pyrazolo[3,4-d]pyrimidin-1-yl]-piperidine-1-carboxylic acid 2,2,2-trifluoro-1-methyl-ethyl ester] was run?
Its EC50 is 1 µM.

For `CC(C)(OC(=O)N1CCC(n2ncc3c(Oc4ccc(S(C)(=O)=O)cc4)ncnc32)CC1)C(F)(F)F` [Example 111, 4-[4-(4-Methanesulfonyl-phenoxy)-pyrazolo[3,4-d]pyrimidin-1-yl]-piperidine-1-carboxylic acid 2,2,2-trifluoro-1,1-dimethyl-ethyl ester], which EC50 is on record?
The EC50 was 0.05 µM.

Which EC50 does the source give for `CS(=O)(=O)c1ccc(Oc2ncnc3c2cnn3C2CCN(C(=O)OC(C(F)(F)F)C(F)(F)F)CC2)cc1` [Example 112, 4-[4-(4-Methanesulfonyl-phenoxy)-pyrazolo[3,4-d]pyrimidin-1-yl]-piperidine-1-carboxylic acid 2,2,2-trifluoro-1-trifluoromethyl-ethyl ester] here?
The EC50 was 0.5 µM.

`CS(=O)(=O)c1ccc(Oc2ncnc3c2cnn3C2CCN(C(=O)OCC(F)(F)F)CC2)cc1` [Example 113, 4-[4-(4-Methanesulfonyl-phenoxy)-pyrazolo[3,4-d]pyrimidin-1-yl]-piperidine-1-carboxylic acid 2,2,2-trifluoro-ethyl ester] was tested. Which EC50 did it give?
Its EC50 is 0.16 µM.

How did the EC50 turn out when `CC(C)(OC(=O)N1CCC(n2ncc3c(Oc4ccc(S(C)(=O)=O)cc4)ncnc32)CC1)C(Cl)(Cl)Cl` [Example 114, 4-[4-(4-Methanesulfonyl-phenoxy)-pyrazolo[3,4-d]pyrimidin-1-yl]-piperidine-1-carboxylic acid 2,2,2-trichloro-1,1-dimethyl-ethyl ester] was run?
Its EC50 is 0.044 µM.

With `CS(=O)(=O)c1ccc(Oc2ncnc3c2cnn3C2CCN(C(=O)OCC(Cl)(Cl)Cl)CC2)cc1` [Example 115, 4-[4-(4-Methanesulfonyl-phenoxy)-pyrazolo[3,4-d]pyrimidin-1-yl]-piperidine-1-carboxylic acid 2,2,2-trichloro-ethyl ester] as the compound, how does the EC50 read?
Its EC50 is 0.018 µM.

With `Cc1ncccc1Oc1ncnc2c1cnn2C1CCN(C(=O)OC2CCC2)CC1` [Example 116, 4-[4-(2-Methyl-pyridin-3-yloxy)-pyrazolo[3,4-d]pyrimidin-1-yl]-piperidine-1-carboxylic acid cyclobutyl ester] as the compound, how does the EC50 read?
The EC50 was 0.55 µM.

`CCOc1ccc(Oc2ncnc3c2cnn3C2CCN(C(=O)OC3CCCC3)CC2)c(F)c1` [Example 117, 4-[4-(4-Ethoxy-2-fluoro-phenoxy)-pyrazolo[3,4-d]pyrimidin-1-yl]-piperidine-1-carboxylic acid cyclopentyl ester] was tested. Which EC50 did it give?
The EC50 was 0.17 µM.

`N#Cc1ccccc1Oc1ncnc2c1cnn2C1CCN(C(=O)OC2CCCC2)CC1` [Example 118, 4-[4-(2-Cyano-phenoxy)-pyrazolo[3,4-d]pyrimidin-1-yl]-piperidine-1-carboxylic acid cyclopentyl ester] was tested. Which EC50 did it give?
Its EC50 is 0.34 µM.

`N#Cc1ccc(F)c(F)c1Oc1ncnc2c1cnn2C1CCN(C(=O)OC2CCCC2)CC1` [Example 119, 4-[4-(6-Cyano-2,3-difluoro-phenoxy)-pyrazolo[3,4-d]pyrimidin-1-yl]-piperidine-1-carboxylic acid cyclopentyl ester] was tested. Which EC50 did it give?
Its EC50 is 0.063 µM.

For `CS(=O)(=O)c1ccc(Oc2ncnc3c2cnn3C2CCN(C(=O)OC3CCCC3)CC2)c(F)c1` [Example 120, 4-[4-(2-Fluoro-4-methanesulfonyl-phenoxy)-pyrazolo[3,4-d]pyrimidin-1-yl]-piperidine-1-carboxylic acid cyclopentyl ester], which EC50 is on record?
Its EC50 is 0.031 µM.

`Cc1ncccc1Oc1ncnc2c1cnn2C1CCN(C(=O)OC2CCCC2)CC1` [Example 121, 4-[4-(2-Methyl-pyridin-3-yloxy)-pyrazolo[3,4-d]pyrimidin-1-yl]-piperidine-1-carboxylic acid cyclopentyl ester] was tested. Which EC50 did it give?
The EC50 was 0.26 µM.

With `Cc1ncccc1Oc1ncnc2c1cnn2C1CCN(C(=O)Oc2ccccc2)CC1` [Example 122, 4-[4-(2-Methyl-pyridin-3-yloxy)-pyrazolo[3,4-d]pyrimidin-1-yl]-piperidine-1-carboxylic acid phenyl ester] as the compound, how does the EC50 read?
The EC50 was 1.1 µM.
